Test system: Hepatitis C replicon in Huh-7 cells
Test: HCV replicon replication assay (NPT ELISA)
Type: cell-based
Details: Hepatitis C virus, Huh-7, 72 h
Procedure: Compounds claimed herein are tested for the ability to inhibit viral replication of the Hepatitis C replicon in cultured cells in which the HCV replicon construct has been incorporated. The HCV replicon system was described by Bartenschlager, et. al (Science, 285, pp. 110-113 (1999)). The replicon system is predictive of in vivo anti-HCV activity; compounds that are active in humans uniformly evidence activity in the replicon assay.
In this assay HCV replicon containing cells are treated with different concentrations of the test compound to ascertain the ability of the test compound to suppress replication of the HCV replicon. As a positive control, HCV replicon-containing cells are treated with different concentrations of interferon alpha, a known inhibitor of HCV replication. The replicon assay system includes Neomycin Phosphotransferase (NPT) as a component of the replicon itself in order to detect the transcription of replicon gene products in the host cell. Cells in which the HCV replicon is actively replicating have high levels of NPT; the level of NPT is proportional to HCV replication. […] The NPT level of each sample is measured using a captured ELISA.
A protocol for testing compounds for the ability to inhibit viral replication of the Hepatitis C replicon cultured cells in which the replicon construct has been incorporated, follows.
The HCV replicon contains, 5′-3′, the HCV-IRES, the neomycin phosphotransferase (neo) gene, the IRES of encephalomyocarditis virus, which directs translation of HCV sequences NS3 to NS5B, and the 3′-NTR. The sequence of the HCV replicon has been deposited in GenBank (Accession no. AJ242652).
The replicon is transfected into Huh-7 cells using standard methods such as electroporation.
The cells are then seeded onto 96-well plates at a density of 6000-7500 cells/100 microliters/well (6-7.5×10^5 cells/10 ml/plate). The plates are then incubated at 37° C. in a 5% CO2 incubator.
HCV replicon-containing cells are rinsed with once PBS once; 2 mls of trypsin are then added. Cells are incubated at 37° C. in a 5% CO2 incubator for 3-5 minutes. 10 mls of complete medium is added to stop the reaction. Cells are blown gently, put into a 15 ml tube, and spun at 1200 rpm for four minutes. The trypsin/medium solution is removed and 5 mls of medium (500 ml DMEM (high glucose)) from BRL catalog #12430-054; 50 mls 10% FBS, 5% Geneticin G418 (50 mg/ml, BRL catalog #10131-035), 5 ml MEM non-essential amino acids (100×BRL #11140-050) and 5 ml pen-strep (BRL #15140-148) is added. The cells and media are mixed carefully
Cells are plated with screening medium (500 ml DMEM (BRL #21063-029), 50 ml FBS (BRL #10082-147) and 5 ml MEM non-essential amino acid (BRL #11140-050) at 6000-7500 fcells/100 μl/well of 96 well plate (6-7.5×10^5 cells/10 ml/plate). Plates are placed into 37° C. 5% CO2 incubator overnight.
The following morning, drugs (test compounds or interferon alpha) are diluted in 96 well U bottom plates with media or DMSO/media, depending on the final concentration chosen for screening. Generally for 6 concentrations of each test compounds ranging from 10 micromolar to 0.03 micromolar are applied. 100 μl of the test compound dilution is placed in wells of the 96 well plate containing the HCV replicon cells. Media without drug is added to some wells as a negative controls. DMSO is known to affect cell growth. Therefore, if drugs diluted in DMSO are used, all wells, including negative control (media only) and positive control (interferon alpha) wells, must contain the same concentration of DMSO, for single dose screening. The plates are incubated at 37° C. in a humidified 5% CO2 environment for three days.
On day four, the NTPII assay is quantitated. The medium is poured from the plates and the plates are washed once in 200 μl of PBS. The PBS is then decanted and the plates tapped in a paper towel to remove any remaining PBS. […]

Structure (SMILES)	EC50 [µM]
COc1ccc2c(O[C@@H]3C[C@H]4C(=O)N[C@@]5(C(=O)NS(=O)(=O)C6CC6)C[C@@H]5/C=C\CCCCC[C@H](CC(=O)N5CCCCC5)C(=O)N4C3)cc(-c3ccccc3)nc2c1 [Compound 59, (2R,6R,13aR,14aS,16aS,Z)-N-(cyclopropylsulfonyl)-2-(7-methoxy-2-phenylquinolin-4-yloxy)-5,16-dioxo-6-(2-oxo-2-(piperidin-1-yl)ethyl)-1,2,3,5,6,7,8,9,10,11,13a,14,14a,15,16,16a-hexadecahydrocyclopropa[e]pyrrolo[1,2-a] [1,4]diazacyclopentadecine-14a-carboxamide]	< 0.1
C=C[C@@H]1C[C@]1(NC(=O)[C@@H]1C[C@@H](Oc2cc(-c3ccccc3)nc3cc(OC)ccc23)CN1C(=O)[C@@H](CC(=O)N1CCCCC1)C(C)(C)C)C(=O)NS(=O)(=O)C1CC1 [Compound 60, (2S,4R)-1-((S)-2-tert-butyl-4-oxo-4-(piperidin-1-yl)butanoyl)-N-((1R,2S)-1-(cyclopropylsulfonylcarbamoyl)-2-vinylcyclopropyl)-4-(7-methoxy-2-phenylquinolin-4-yloxy)pyrrolidine-2-carboxamide]	< 0.1
